# Assay: CEST imaging in vivo (diaCEST MRI) after intravaginal administration
# Parameters: species or system mice
# Method: Naturally cycling, estrus phase female mice were used for the intravaginal distribution study and the in vivo CEST imaging studies. In brief, female CF-1 mice (6-8 weeks old, Harlan, Indianapolis, Ind.) were housed in a reversed light cycle facility (12-hour light/12-hour dark). Mice were selected for external estrus appearance, which was confirmed upon dissection. All animal studies were performed in accordance to protocols approved by the Institutional Animal Care and Use Committee (IACUC) at the Johns Hopkins University.
# Mice were anesthetized using isoflurane and positioned in a 11.7 T horizontal bore Bruker Biospec scanner (Bruker Biosciences, Billerica, Mass.). Twenty microliters of BA-loaded 7 mol %-PEG liposome suspension (4 mg BA/mL) or free BA solution at a equivalent dose were administered intravaginally via a customized catheter. Imaging was performed before and at 30 min-intervals after the intravaginal administration up to 1.5 h. Axial images were acquired at ˜2 mm above the tip of the catheter that was inserted ˜5 mm deep from the vaginal opening. […]
# MR images were processed using custom-written Matlab scripts with the CEST contrast quantified by calculating the asymmetry in the magnetization transfer ratio (MTRasym) using MTRasym=(S−Δω−S+Δω)/S0 for NH protons at the frequency offset of BA from water (Δω)=5 ppm. […]
smiles,measurement,setting,value
"O=C1CC(=O)NC(=O)N1 [unencapsulated BA, barbituric acid]",vaginal retention time / duration of CEST contrast,"intravaginal, mice, imaging up to 1.5 h",~30 min
same,vaginal retention by diaCEST MRI,liposomal vs unencapsulated BA,much shorter vaginal retention time

# Reference: US20170281541A1, “LIPOSOME-BASED MUCUS-PENETRATING PARTICLES FOR MUCOSAL DELIVERY” (The Johns Hopkins University, priority 2014, published 2017)
